Laboratory results taken from patent US11807835B2, “Detergent compositions containing a stabilized enzyme by phosphonates” (ECOLAB USA INC., priority 2016, dated 2023).

Test system: lipase
Experiment: Lipase activity retention in detergent use solution (4000 ppm, 5 GPG water; p-nitrophenyl valerate, TRIS buffer pH 8.0)
Type: biochemical
Conditions: for Relative Lipase Enzyme Activity in a Use Solution: Table 6E, room temperature; for Relative Lipase Enzyme Activity in a Use Solution of the All Ash Detergent Composition: Table 6F, all ash formula, 120º F.; for Relative Lipase Enzyme Activity: base formula
Description: The enzyme […] collected up to 4 hours, after a use solution was generated from the detergent composition. During the tests, the samples at different time points were collected and immediately frozen in an acetone/dry ice bath and stored in −80° C. before the activity of the enzyme was evaluated. For the use of such an assay, t=0 min was the reference point for 100% enzyme activity.
Assays of enzyme activity in formulations (% retention) were conducted to simulate a presoak condition in a beaker using the chemistry, temperature, and pH conditions relevant to manual warewash or presoak applications. Enzyme activity is an indicator of the stability of the enzyme in the detergent, specifically in an aqueous use solution within a sump (which is under conditions of high pH, temperature and dilution).
Enzyme activity under presoak or manual warewash conditions was traced quantitatively using a standard protease assay. Samples were prepared under bench top conditions, whereby the use solution from a detergent composition or detergent was obtained and maintained at a presoak or manual warewash temperature in a stirring water bath. After the time course for assessing enzyme stability is initiated, aliquots were taken at various time points and flash-frozen. A time=0 sample was prepared for each series by dissolving the detergent formulation at room temperature, mixing thoroughly, and flash freezing. Samples were thawed and diluted as necessary in an assay buffer usually for use in the protease assay. A glycine buffer at pH 9.0 is used here. The assay monitored the direct reaction of the protease on a small, commercially available peptidyl substrate, with liberation of the product providing correlation to the active enzyme content. The product was detected using a plate reader with an appreciable dynamic range (upper absorbance limit of the instrument >3.5). Enzyme activity levels were assessed relative to a calibration curve with average values for replicate tests used to map protease stability under presoak or manual warewash use conditions. Enzyme retention at each time point was calculated as the % enzyme activity relative to the time=0 sample.
The analysis by lipase and amylase assay was conducted similarly, except with a different substrate and buffers. For lipase activity, the substrate is p-nitrophenyl valerate, and for amylase, the substrate is an ethylidene substrate (EPS). The buffer used in lipase assay is TRIS (Tris(hydroxymethyl)aminomethane) buffer at pH 8.0, and in amylase assay HEPES (4-(2-hydroxyethyl)-1-piperazineethanesulfonic acid) buffer at pH 8.0.

[1] = phosphonate 0.3 wt-%, time 60 min
[2] = phosphonate 0.3 wt-%, time 90 min
[3] = phosphonate 0.3 wt-%, time 120 min
[4] = phosphonate 0.3 wt-%, time 150 min
[5] = phosphonate 0.3 wt-%, time 180 min
[6] = phosphonate 0.3 wt-%, time 210 min
[7] = phosphonate 0.3 wt-%, time 240 min

In the case of `CC(O)(P(=O)(O)O)P(=O)(O)O` [HEDP, 1-hydroxy ethylidene-1,1-diphosphonic acid], the “Relative Lipase Enzyme Activity in a Use Solution” value [1] is reported as 89.82%, the “Relative Lipase Enzyme Activity in a Use Solution” value [2] is reported as 104.91% and the “Relative Lipase Enzyme Activity in a Use Solution” value [3] is reported as 100.99%. The “Relative Lipase Enzyme Activity in a Use Solution” value [4] was 100.18%, the “Relative Lipase Enzyme Activity in a Use Solution” value [5] was 100.45% and the “Relative Lipase Enzyme Activity in a Use Solution” value [6] was 98.87%. The “Relative Lipase Enzyme Activity in a Use Solution” value [7] was 99.95%, the “Relative Lipase Enzyme Activity in a Use Solution of the All Ash Detergent Composition” value (phosphonate 0.3 wt-%, time 0 min) was 100.00% and the “Relative Lipase Enzyme Activity in a Use Solution of the All Ash Detergent Composition” value (phosphonate 0.3 wt-%, time 5 min) was 39.01%. For the same molecule, the “Relative Lipase Enzyme Activity in a Use Solution of the All Ash Detergent Composition” value (phosphonate 0.3 wt-%, time 10 min) was 21.35%, the “Relative Lipase Enzyme Activity in a Use Solution of the All Ash Detergent Composition” value (phosphonate 0.3 wt-%, time 20 min) was 7.45% and the “Relative Lipase Enzyme Activity in a Use Solution of the All Ash Detergent Composition” value (phosphonate 0.3 wt-%, time 40 min) was 0.88%. The “Relative Lipase Enzyme Activity in a Use Solution of the All Ash Detergent Composition” value [1] was −0.91%, the “Relative Lipase Enzyme Activity in a Use Solution of the All Ash Detergent Composition” value [2] was −1.68% and the “Relative Lipase Enzyme Activity in a Use Solution of the All Ash Detergent Composition” value [3] was −1.38%. For the same molecule, the “Relative Lipase Enzyme Activity in a Use Solution of the All Ash Detergent Composition” value [4] was −1.94%, the “Relative Lipase Enzyme Activity in a Use Solution of the All Ash Detergent Composition” value [5] was −4.15% and the “Relative Lipase Enzyme Activity in a Use Solution of the All Ash Detergent Composition” value [6] was −4.41%. For the same molecule, the “Relative Lipase Enzyme Activity in a Use Solution of the All Ash Detergent Composition” value [7] was −3.60%, the “Relative Lipase Enzyme Activity” value (phosphonate 0.3 wt-%, use solution at 120° F., time 0 min) was 100.00% and the “Relative Lipase Enzyme Activity” value (phosphonate 0.3 wt-%, use solution at 120° F., time 5 min) was 47.15%. The “Relative Lipase Enzyme Activity” value (phosphonate 0.3 wt-%, use solution at 120° F., time 10 min) was 44.35%, the “Relative Lipase Enzyme Activity” value (phosphonate 0.3 wt-%, use solution at 120° F., time 20 min) was 34.94% and the “Relative Lipase Enzyme Activity” value (phosphonate 0.3 wt-%, use solution at 120° F., time 40 min) was 23.40%. The “Relative Lipase Enzyme Activity” value (phosphonate 0.3 wt-%, use solution at 120° F., time 60 min) was 17.75%, the “Relative Lipase Enzyme Activity” value (phosphonate 0.3 wt-%, use solution at 120° F., time 90 min) was 11.06% and the “Relative Lipase Enzyme Activity” value (phosphonate 0.3 wt-%, use solution at 120° F., time 120 min) was 6.92%. For the same molecule, the “Relative Lipase Enzyme Activity” value (phosphonate 0.3 wt-%, use solution at 120° F., time 150 min) was 5.38%, the “Relative Lipase Enzyme Activity” value (phosphonate 0.3 wt-%, use solution at 120° F., time 180 min) was 2.90% and the “Relative Lipase Enzyme Activity” value (phosphonate 0.3 wt-%, use solution at 120° F., time 210 min) was 2.62%. The “Relative Lipase Enzyme Activity” value (phosphonate 0.3 wt-%, use solution at 120° F., time 240 min) was 2.32%, the “Relative Lipase Enzyme Activity” value (phosphonate 0.6 wt-%, use solution at 120º F., time 0 min) was 100.00% and the “Relative Lipase Enzyme Activity” value (phosphonate 0.6 wt-%, use solution at 120º F., time 5 min) was 62.99%. The “Relative Lipase Enzyme Activity” value (phosphonate 0.6 wt-%, use solution at 120º F., time 10 min) was 59.92%, the “Relative Lipase Enzyme Activity” value (phosphonate 0.6 wt-%, use solution at 120º F., time 20 min) was 48.34% and the “Relative Lipase Enzyme Activity” value (phosphonate 0.6 wt-%, use solution at 120º F., time 40 min) was 33.30%. The “Relative Lipase Enzyme Activity” value (phosphonate 0.6 wt-%, use solution at 120º F., time 60 min) was 23.22%, the “Relative Lipase Enzyme Activity” value (phosphonate 0.6 wt-%, use solution at 120º F., time 90 min) was 17.91% and the “Relative Lipase Enzyme Activity” value (phosphonate 0.6 wt-%, use solution at 120º F., time 120 min) was 14.72%. The “Relative Lipase Enzyme Activity” value (phosphonate 0.6 wt-%, use solution at 120º F., time 150 min) was 12.63%, the “Relative Lipase Enzyme Activity” value (phosphonate 0.6 wt-%, use solution at 120º F., time 180 min) was 7.01% and the “Relative Lipase Enzyme Activity” value (phosphonate 0.6 wt-%, use solution at 120º F., time 210 min) was 8.08%. The “Relative Lipase Enzyme Activity” value (phosphonate 0.6 wt-%, use solution at 120º F., time 240 min) was 5.20%, the “Relative Lipase Enzyme Activity” value (phosphonate at 0.1% elemental phosphorus, at 120º F. or at room temperature (as titled), time 0 min) was 100.00% and the “Relative Lipase Enzyme Activity” value (phosphonate at 0.1% elemental phosphorus, at 120º F. or at room temperature (as titled), time 5 min) was 79.12%. For the same molecule, the “Relative Lipase Enzyme Activity” value (phosphonate at 0.1% elemental phosphorus, at 120º F. or at room temperature (as titled), time 10 min) was 67.70%, the “Relative Lipase Enzyme Activity” value (phosphonate at 0.1% elemental phosphorus, at 120º F. or at room temperature (as titled), time 20 min) was 51.16% and the “Relative Lipase Enzyme Activity” value (phosphonate at 0.1% elemental phosphorus, at 120º F. or at room temperature (as titled), time 40 min) was 25.69%. The “Relative Lipase Enzyme Activity” value (phosphonate at 0.1% elemental phosphorus, at 120º F. or at room temperature (as titled), time 60 min) was 19.99%, the “Relative Lipase Enzyme Activity” value (phosphonate at 0.1% elemental phosphorus, at 120º F. or at room temperature (as titled), time 90 min) was 16.10% and the “Relative Lipase Enzyme Activity” value (phosphonate at 0.1% elemental phosphorus, at 120º F. or at room temperature (as titled), time 120 min) was 13.04%. The “Relative Lipase Enzyme Activity” value (phosphonate at 0.1% elemental phosphorus, at 120º F. or at room temperature (as titled), time 150 min) was 11.14%, the “Relative Lipase Enzyme Activity” value (phosphonate at 0.1% elemental phosphorus, at 120º F. or at room temperature (as titled), time 180 min) was 9.12% and the “Relative Lipase Enzyme Activity” value (phosphonate at 0.1% elemental phosphorus, at 120º F. or at room temperature (as titled), time 210 min) was 7.99%. For the same molecule, the “Relative Lipase Enzyme Activity” value (phosphonate at 0.1% elemental phosphorus, at 120º F. or at room temperature (as titled), time 240 min) was 7.70%.
